Source: US20140303188A1, “Substituted Cyclopenta Pyrimidine Bicyclic Compounds Having Antitmitotic And/Or Antitumor Activity And Methods Of Use Thereof” (DUQUESNE UNIVERSITY OF THE HOLY SPIRIT, priority 2008, published 2014)
Counter-ions that a name gives are not always drawn. Like-named read-outs stand apart in the source and are kept apart here. Values belong to the compound of their own block, whether it stands above or below them.

Key:
[1] = tested on: MDA-MB-435 tumor cell line; assay: inhibition of proliferation, sulforhodamine B assay; type: cell-based; conditions: read-out: IC50 ± SD (MDA-MB-435) Tumor cells
Procedure: (§1) However, the reverse orientation of methoxy and methylamino on the naphthyl, compound 11, has no microtubule depolymerization inhibitory activity up to 10 000 nM.

Wild type HeLa = assay: antiproliferative activity, isogenic HeLa pair, wild type; type: cell-based; conditions: read-out: IC50 ± SD Wild type HeLa
Text: (§2) One mechanism of drug resistance that can lead to chemotherapy failure with tubulin targeting agents is the expression of the βIII isotype of tubulin.

[2] = tested on: β-III Overexpressing HeLa; assay: antiproliferative activity, isogenic HeLa pair, βIII tubulin; type: cell-based; conditions: for Rr: HeLa cell line pair, wild type and βIII tubulin; for IC50: read-out: IC50 ± SD β-III Overexpressing HeLa
Text: as §2

A-10 cells = assay: cell-based phenotypic screen of microtubule disrupting effects; parameters: species or system rat; conditions: read-out: EC50 in A-10 cells (Tubulin depolymerization inhibitory acitivity)
Procedure: as §1

tubulin = assay: antitubulin activities; type: cell-based; conditions: for IC50: read-out: IC50 (antitubulin agent)
Text: Compounds 1, 2 are cyclopenta pyrimidine compounds. Their antitubulin activities are set forth above. […] The structural differences between Compounds 1 and 2 lead to several pharmacological ramifications. Among them, the conformation of aniline rings maybe a pivotal factor that results in the affinity difference. In order to validate this, we set forth a preferred representative series of N-methyl-N-methoxynaphthyl cyclopenta[d]pyrimidin-4-amine (4) based on the high potent antibulin agent 3 (IC50=7.0 nM). All these preferred representative methoxynaphthyl substituted bicyclic compounds of this invention have the same function groups and molecular weight, similar Log D.

[3] = tested on: SKOV3M6/6 (Pgp infected human ovarian cancer); assay: cytotoxicity towards Pgp infected ovarian cancer cell line; conditions: for IC50: Homo sapiens; for calculated relative resistance value: SKOV3M6/6 versus SKOV3, FIG. 4
Procedure: (§3) Antimitotic compounds AAG1, AAG7, AAG12, AAG16, AAG20, and AAG26, Taxol®, and combrestastatinA4, were evaluated for cytotoxity towards the panel of human cell lines MDA MB 435 (human breast cancer), SKOV3 (human ovarian cancer), and SKOV3M6/6 (Pgp infected human ovarian cancer). […] The IC50 is the inhibitory concentration required to effectuate fifty percent inhibition of cell growth.

purified tubulin = assay: inhibition of tubulin assembly; type: biochemical; conditions: read-out: Inhibition of tubulin assembly IC50 ± SD
Procedure: The effects of designed compounds 10-14 on the polymerization of purified tubulin were evaluated. This allows for the study of the direct interaction of the compounds with their intracellular target. The ability of these compounds to bind to the colchicine site on tubulin was evaluated by measuring inhibition of [^3H]colchicine binding to tubulin. […] It is therefore likely that 13 binds in the colchicine site.

[4] = tested on: colchicine site on tubulin; assay: inhibition of [3H]colchicine binding to tubulin; conditions: 1 μM inhibitor
Procedure: This allows for the study of the direct interaction of the compounds with their intracellular target. The ability of these compounds to bind to the colchicine site on tubulin was evaluated by measuring inhibition of [^3H]colchicine binding to tubulin.

[5] = tested on: MDA MB 435 human breast cancer; assay: flow cytometric analysis of cell cycle phase distribution; type: cell-based; conditions: treatment for twenty four hours
[6] = tested on: MDA MB 435, SKOV3, SKOV3M6/6; assay: cytotoxicity towards panel of human cell lines
Procedure: as §3

[7] = tested on: A-10 rat smooth muscle cell line; assay: microtubule depolymerization immunofluorescence assay; type: cell-based; conditions: 24 h; 250 nM AAG1, 500 nM AAG7, 40 nM AAG16
Procedure: A-10 rat smooth muscle cells were used since they grow as flat monolayers that are amenable to imaging. The A-10 cells were treated for twenty four (24) hours (h) with EtOH (control), 250 nM (nanomolar) AAG1, 500 nM AAG7, or 40 nM AAG16, respectively. Microtubules were then visualized by indirect immunofluorescence staining with beta-tubulin antibodies. […] Each of the compounds AAG1, AAG7, and AAG16 has potent nanomolar tubulin inhibitory activity. Compounds of the present invention having the structural Formulas III and IV, as set forth herein, inhibit the microtubule dynamics. The inhibition of microtubule dynamics hinders microtubule formation and results in mitotic arrest and initiation of apoptosis or programmed cell death.

NCI 55 human tumor lines = NCI 55 human tumor lines in vitro screen; type: cell-based; conditions: all 55 tumor cell lines
Text: FIGS. 5a and 5b show the results of testing compound AAG1 of the present invention using National cancer Institute (NCl) 55 human tumor lines. The cells lines, which represent leukemia, non-small cell lung cancer, colon cancer, central nervous system cancer, melanoma, ovarian cancer, renal cancer, prostate cancer, and breast cancer, are listed in FIG. 5. Testing was in accordance with the NCI Developmental Therapeutics Program (DTP) In Vitro Cell Line Screening Project (IVCLSP). Methodology for testing under IVCLSP is provided at http://dtp.nci.gov/branches/btb/ivclsp.html.
GI50 is the concentration of chemical required to reduce the growth of treated cells to half that of untreated cells (i.e. control). GI50 represents the concentration of chemical required to effectuate fifty percent inhibition of cell growth.

[8] = Homo sapiens, MDA-MB-435, MDA-MB-435

IC50 [1, 8]: 33.7 ± 3.4 nM | IC50 (Wild type HeLa; Homo sapiens, HeLa): 15 nM | IC50 ([2]; Homo sapiens, HeLa): 14 ± 1 nM
Compound: COc1cccc2cc(N(C)c3ncnc4c3CCC4)ccc12 [Compound 12]
Rr [2]: 1.07

IC50 [1, 8]: 10 nM | IC50 ([1]; MDA-MB-435): 10.2 ± 0.46 nM | IC50 (Wild type HeLa; Homo sapiens, HeLa): 4 ± 1 nM | IC50 ([2]; Homo sapiens, HeLa): 4 ± 1 nM
Compound: COc1cccc2cc(N(C)c3nc(C)nc4c3CCC4)ccc12 [Compound 13, N,2-dimethyl-N-(5′-methoxynaphthyl-2′-amino)-cyclopenta[d]pyrimidin-4-amine]
Rr [2]: 1.0

EC50 (A-10 cells; Rattus norvegicus, A10): > 10000 nM
Compound: COc1ccc2c(N(C)c3ncnc4c3CCC4)cccc2c1 [Compound 10]

IC50 [1, 8]: 7 ± 0.7 nM | IC50 (tubulin): 7 nM
Compound: COc1ccc(N(C)c2nc(C)nc3c2CCC3)cc1 [Compound 3]

IC50 (Wild type HeLa; Homo sapiens, HeLa): 5.3 ± 2 nM | IC50 ([2]; Homo sapiens, HeLa): 16 ± 1 nM
Compound: CC(=O)O[C@H]1C(=O)[C@@]2(C)[C@H]([C@H](OC(=O)c3ccccc3)[C@]3(O)C[C@H](OC(=O)[C@H](O)[C@@H](NC(=O)c4ccccc4)c4ccccc4)C(C)=C1C3(C)C)[C@]1(OC(C)=O)CO[C@@H]1C[C@@H]2O [Paclitaxel, paclitaxel, reference compound]
IC50 [3]: 4400 nM | calculated relative resistance value [3]: 2013 | Rr [2]: 0.33

Compound: COc1ccc(/C=C\c2cc(OC)c(OC)c(OC)c2)cc1O [CA4, combretastatin A-4, reference compound]
EC50 (A-10 cells; A-10 cells): 13 nM | IC50 (purified tubulin): […] | IC50 ([1]; MDA-MB-435): 3.4 ± 0.6 nM | IC50 (Wild type HeLa): 1.8 ± 0.4 nM | Rr [2]: 0.72 | IC50 [2]: 2.5 ± 0.7 nM | Inhibition of colchicine binding % Inhibition ± SD [4]: 90 ± 0.2%

Compound: COc1ccc(Nc2nc(C)nc3c2CC(C)C3)cc1 (centres unmarked) [Compound 1]
antitubulin activity in words (tubulin): almost inactive

Compound: N-(4-methoxy-phenyl)-6-methyl-5H-pyrrolo[3,2-d]pyrimidine-2,4-diamine [AAG12]
percentage of cells in the G2/M phases [5]: increased approximately two-fold | cytotoxic activity toward each of the human cancer cell lines tested [6]: have cytotoxic activity

Compound: COc1ccc(N(C)c2nc(C)nc3c2CC(C)C3)cc1 (centres unmarked) (as salt: chloride) [AAG26, N-(4-Methoxyphenyl)-N,2,6-trimethyl-6,7-dihydro-5H-cyclopenta[d]pyrimidin-4-aminium chloride]
melting point: 196 to 198 °C

Compound: COc1ccc(N(C)c2nc(N)nc3c2CC(C)C3)cc1 (centres unmarked) [AAG7, N^4-(4-Methoxyphenyl)-N^4,6-dimethyl-6,7-dihydro-5H-cyclopenta[d]pyrimidine-2,4-diamine]
effect on microtubules (immunofluorescence, beta-tubulin antibodies) [7]: caused losses of microtubules | cytotoxic activity toward each of the human cancer cell lines tested ([6]; MDA MB 435, SKOV3, SKOV3M6/6): have cytotoxic activity

EC50 (A-10 cells; Rattus norvegicus, A10): 500 ± 2.1 nM | IC50 [1, 8]: 234 ± 20 nM | IC50 (Wild type HeLa; Homo sapiens, HeLa): 85 ± 5 nM | IC50 ([2]; Homo sapiens, HeLa): 180 ± 40 nM
Compound: COc1ccc(N(C)c2nc(C)nc3c2CCC3)c2ccccc12 [Compound 14]
Rr [2]: 0.47

Compound: COc1ccc(N(C)c2nc(C)nc3c2CC(C)C3)cc1 (centres unmarked) [Compound 2]
IC50 (tubulin): 25.7 nM

Compound: COc1ccc(N(C)c2nc(C)nc3[nH]ccc23)cc1 [AAG20, N-(4-methoxyphenyl)-N,2-dimethyl-7H-pyrrolo[2,3-d]pyrimidin-4-amine]
percentage of cells in the G2/M phases [5]: increased approximately two-fold | cytotoxic activity toward each of the human cancer cell lines tested ([6]; MDA MB 435, SKOV3, SKOV3M6/6): have cytotoxic activity

Compound: COc1ccc(N(C)c2ncnc3occ(C)c23)cc1 [AAG16, N-(4-methoxyphenyl)-N,5-dimethylfuro[2,3-d]pyrimidin-4-amine]
percentage of cells in the G2/M phases [5]: increased approximately two-fold | effect on microtubules (immunofluorescence, beta-tubulin antibodies) [7]: caused losses of microtubules | cytotoxic activity toward each of the human cancer cell lines tested ([6]; MDA MB 435, SKOV3, SKOV3M6/6): have cytotoxic activity | IC50 [3]: 8.4 nM

IC50 (Wild type HeLa; Homo sapiens, HeLa): 4 ± 2 nM | IC50 ([2]; Homo sapiens, HeLa): 13 ± 4 nM
Compound: CC(=O)O[C@@]12CO[C@@H]1C[C@H](O)[C@@]1(C)C(=O)[C@H](O)C3=C(C)[C@@H](OC(=O)[C@H](O)[C@@H](NC(=O)OC(C)(C)C)c4ccccc4)C[C@@](O)([C@@H](OC(=O)c4ccccc4)[C@H]21)C3(C)C [Docetaxel, docetaxel, reference compound]
Rr [2]: 0.31

Compound: COc1ccc(N(C)c2nc(C)nc3c2CC(C)C3)cc1 (centres unmarked) [AAG26, N-(4-Methoxyphenyl)-N,2,6-trimethyl-6,7-dihydro-5H-cyclopenta[d]pyrimidin-4-aminium chloride]
cytotoxic activity toward each of the human cancer cell lines tested ([6]; MDA MB 435, SKOV3, SKOV3M6/6): have cytotoxic activity | IC50 [3]: 3.2 nM

Compound: COc1ccc(N(C)c2nc(C)nc3oc(C)cc23)cc1 [AAG1, N-(4-methoxyphenyl)-N,2,6-trimethylfuro[2,3-d]pyrimidin-4-amine]
percentage of cells in the G2/M phases [5]: increased approximately two-fold | effect on microtubules (immunofluorescence, beta-tubulin antibodies) [7]: caused losses of microtubules | cytotoxic activity toward each of the human cancer cell lines tested ([6]; MDA MB 435, SKOV3, SKOV3M6/6): have cytotoxic activity | GI50 (NCI 55 human tumor lines): single digit 10^−8 molar levels | IC50 [3]: 171 nM | calculated relative resistance value [3]: 4.7

EC50 (A-10 cells; Rattus norvegicus, A10): > 10000 nM | IC50 (Wild type HeLa; Homo sapiens, HeLa): > 10000 nM | IC50 ([2]; Homo sapiens, HeLa): > 10000 nM
Compound: COc1ccc2c(N(C)c3nc(C)nc4c3CCC4)cccc2c1 [Compound 11, N,2-dimethyl-N-(6′-methoxynaphthyl-1′-amino)-cyclopenta[d]pyrimidin-4-amine]
